Entries after “also recorded” stand apart in the source; their conditions may differ. Like-named read-outs stand apart in the source and are kept apart here.
Legend:
1α-OHase [1] = biological target: T1, 1α-OHase (Homo sapiens, UniProt O15528); settings: DU 145
T1 sequence (O15528 1-508): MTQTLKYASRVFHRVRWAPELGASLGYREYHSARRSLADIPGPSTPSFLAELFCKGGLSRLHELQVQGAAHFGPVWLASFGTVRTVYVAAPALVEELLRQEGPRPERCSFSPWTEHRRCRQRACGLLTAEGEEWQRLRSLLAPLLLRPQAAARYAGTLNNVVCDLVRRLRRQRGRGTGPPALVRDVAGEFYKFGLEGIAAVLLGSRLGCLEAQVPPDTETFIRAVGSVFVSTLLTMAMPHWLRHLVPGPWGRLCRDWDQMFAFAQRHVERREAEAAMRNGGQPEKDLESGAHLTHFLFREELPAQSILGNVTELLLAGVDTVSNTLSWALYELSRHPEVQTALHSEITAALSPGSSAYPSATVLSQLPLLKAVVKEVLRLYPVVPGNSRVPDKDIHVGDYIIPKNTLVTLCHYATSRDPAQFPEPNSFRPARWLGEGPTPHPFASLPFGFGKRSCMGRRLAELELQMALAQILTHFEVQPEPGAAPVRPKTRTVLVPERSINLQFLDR
Method: (§1) (A) Cell Lines. DU 145, PC-3, and LNCaP cell lines were obtained from the American Type Culture Collection, Rockville, Md. All cell lines were tested and found to be free of Mycoplasma contamination.
(§2) (B) Culture Conditions. Prostate cancer cell lines were cultured following several passages in vitro. Cells were routinely cultured in complete medium (RPMI 1640 medium supplemented with fetal bovine serum (10%., HyClone Labs, Logan Utah) and gentamicin (10 μg/ml, Life Technologies, Inc., Gaithersburg, Md.)). Cells were seeded in 35 mm culture dishes (Corning-Costar, Cambridge, Mass.) at 1×10^5 cells/dish in complete medium. Medium was changed to a serum-free medium (RPMI 1640 containing insulin (10 μg/ml), transferrin ( 10 μg/ml) and selenous acid (1 ng/ml)) 24 hours before adding 25(OH)D3.

1α-OHase [2] = biological target: T1, 1α-OHase; assay type: cell-based; design: two primary cultures of cells, NP96-5 and BPH96-11, derived from noncancerous human prostates; endogenous in cells; host or cells: primary human prostatic epithelial cultures NP96-5 (normal prostate) and BPH96-11 (BPH); settings: Human keratinocytes; clotrimazole 20 μM; 25(OH)D3 50 nM, 2 h 37° C.
1α-OHase [3] = biological target: T1, 1α-OHase; settings: LNCaP; clotrimazole 20 μM; 25(OH)D3 50 nM, 2 h 37° C.
Method: as §1, §2

1α-OHase [4] = biological target: T1, 1α-OHase; settings: normal human prostate cells; clotrimazole 20 μM; 25(OH)D3 50 nM, [3H]-25(OH)D3, DPPD 10 μM, 2 h 37° C. (FIG. 3)
Method: (§3) In addition, 1α-OHase activity was determined by using a radioactive metabolite, [^3H]-25(OH)D, as substrate.
Second passage of normal human prostate cells incubated with nonradioactive 25(OH)D3 (50 nM), [^3H]-25(OH)D3 (0.91 μCi/nmol) and 1,2-dianilinoethane (DPPD) (10 μM) at 37° C. for two hours in the absence of clotrimazole (20 μM) is shown in FIG. 2.
Second passage of normal human prostate cells were also incubated with nonradioactive 25(OH)D3 (50 nM), [^3H]-25(OH)D3 (0.91 μCi/nmol) and DPPD (10 μM) at 37° C. for two hours in the presence of clotrimazole (20 μM) in the presence of the cytochrome P450 inhibitor (clotrimazole).

1α-OHase [5] = biological target: T1, 1α-OHase; settings: BPH cultures; clotrimazole 20 μM; 25(OH)D3 50 nM, [3H]-25(OH)D3, DPPD 10 μM, 2 h 37° C. (FIG. 5)
Method: as §3
Second passage of prostate cells derived from BPH cultures were incubated with nonradioactive 25(OH)D3 (50 nM), [^3H]-25(OH)D3 (0.91 μCi/nmol) and DPPD (10 μM) at 37° C. for two hours in the absence of clotrimazole (20 μM).

1α-OHase [6] = biological target: T1, 1α-OHase; settings: BPH96-11; clotrimazole 20 μM; 25(OH)D3 50 nM, 2 h 37° C.
From the text: (§4) Primary cultures of human prostatic epithelial cells were established and characterized as described by Lokeshwar et al., Cancer Res. 53:4493-4498 (1993). Prostatic epithelial cells cultured in a serum-free defined medium (Mammary Epithelial Growth Medium (MEGM), Clontech, San Diego, Calif.) express luminal epithelium specific cytokeratins (cytokeratins 8 and 18) as detected immunohistochemically using an anti-cytokeratin antibody, CAM 5.2 (Becton-Dickinson, Mountain View, Calif.). The serum-free medium contains MCDF170 supplemented with Epidermal Growth Factor, 25 ng/ml, hydrocortisone, 0.5 μg/ml, ethanolamine, 1×10^−4, insulin, 5 μg/ml, transferrin, 5 μg/ml, and whole bovine pituitary extract, 70 μg/ml.
(§5) Prostatic cells used were at their first passage in vitro and were cultured in the serum-free RPMI medium during incubation with vitamin D metabolites. […] Histological examination of adjacent tissue sections taken from specimens used for cultures confirmed their identity as normal or BPH cultures.

1α-OHase [7] = biological target: T1, 1α-OHase; settings: PC-3
Method: as §1, §2

1α-OHase [8] = biological target: T1, 1α-OHase; settings: NP96-5; clotrimazole 20 μM; 25(OH)D3 50 nM, 2 h 37° C.
From the text: as §4, §5

[9] = system: human T-lymphotrophic virus-transformed lymphocytes; settings: cited from earlier work
[10] = system: HEP 62 hepatoma cell line; settings: cited from earlier work
[11] = system: human prostate cancer cells; settings: cited from earlier work
[12] = system: renal proximal tubular cells; settings: primary cultures of renal proximal tubular cells; cited from earlier work
human bone cells = human bone cells (extra-renal site); cited from earlier work
[13] = system: normal human keratinocytes transfected with 1α-OHase cDNA; assay: [3H]thymidine incorporation of human keratinocytes transfected with 1α-OHase cDNA; assay type: cell-based
Method: FIG. 6 depicts a graph showing the effect of 25(OH)D3 concentration on the proliferative activity of normal human keratinocytes transfected with 1α-OHase cDNA. Cultured human keratinocytes transfected with a vector containing the 1α-OHase cDNA as described were incubated with 25(OH)D3 at different concentrations (1 nM, 10 nM, 100 nM) for 18 hours. [^3H]thymidine incorporation was measured as described. ●-: [^3H]thymidine incorporation of cells not transfected (“Control”); ∘-∘: [^3H]thymidine incorporation of cells transfected with vector containing 1α-OHase cDNA (“1α-OHase transfection”).
(F) Keratinocyte transfection. Keratinocytes were maintained in MCDB-153 medium. Cells in 24-well dishes at 50%-60% confluence were transfected with […] of 1α-OHase cDNA which had been subcloned into pCR3.1 vector (INVITROGEN). Empty vector was used as a control. For each transfection, 1.0 μg was diluted in 100 μl of medium containing 6-8 μl Plus Reagent. This mixture was incubated for 15 minutes at room temperature. […] [^3H]thymidine was added to the cultures and [^3H]thymidine incorporation into the DNA (interpreted as a measure of the DNA synthetic activity, i.e. proliferation of the cells) was measured as previously described (Chen, T. C., et al., J Nutr. Biochem. 4:49-57 (1993)). […]

[14] = clotrimazole 20 μM, 25(OH)D3 50 nM, 2 h 37° C.

Compound: Clc1ccccc1C(c1ccccc1)(c1ccccc1)n1ccnc1 [clotrimazole]
- inhibition of 1,25(OH)2D production (1α-OHase [1]; clotrimazole): 100%
- 1,25(OH)2D Produced, P-450 Inhibitor Present (1α-OHase [1]; [14]): completely inhibited; also recorded: undetectable
- 1,25(OH)2D Produced, P-450 Inhibitor Present (1α-OHase [2]): completely inhibited; also recorded: undetectable
- 1,25(OH)2D Produced, P-450 Inhibitor Present (1α-OHase [3]): undetectable
- 1,25(OH)2D synthesis in the presence of clotrimazole (HPLC) (1α-OHase [4]): undetectable
- 1,25(OH)2D metabolite level in the presence of clotrimazole (tritium activity, HPLC) (1α-OHase [5]): less than 200 cpm
- 1,25(OH)2D Produced, P-450 Inhibitor Present (1α-OHase [6]): completely inhibited; also recorded: undetectable
- inhibition of 1,25(OH)2D production (1α-OHase [7]; clotrimazole): 100%
- 1,25(OH)2D Produced, P-450 Inhibitor Present (1α-OHase [7]; [14]): completely inhibited; also recorded: undetectable
- 1,25(OH)2D Produced, P-450 Inhibitor Present (1α-OHase [8]): completely inhibited; also recorded: undetectable

Compound: C=C1/C(=C\C=C2/CCC[C@]3(C)[C@@H]([C@H](C)CCCC(C)(C)O)CC[C@@H]23)C[C@@H](O)C[C@@H]1O [1,25(OH)2D, 1,25-dihydroxyvitamin D]
- 1,25(OH)2D produced [9]: 1.6 pmol/mg protein/hr
- 1,25(OH)2D produced [10]: 2.3 pmol/mg protein/hr
- Level of 1,25(OH)2D that can significantly inhibit invasiveness ([11]; artificial basement membrane composed of human amnions): ≥ 10^−11 M
- effect on invasiveness of DU 145 cells ([11]; physiological levels of 1,25(OH)2D, DU 145, correlated with decrease in secreted type IV collagenase (MMP-2 and MMP-9)): significantly inhibit the invasiveness
- 1α-OHase enzyme activity [12]: 5.3-5.6 pmol/hr/mg protein
- 1,25(OH)2D produced (human bone cells): 0.068 pmol/mg protein/hr

Compound: C=C1CC[C@H](O)C/C1=C/C=C1\CCC[C@]2(C)[C@@H]([C@H](C)CCCC(C)(C)O)CC[C@@H]12 [25(OH)D, 25-hydroxyvitamin D]
- proliferative activity of transfected vs non-transfected control keratinocytes ([13]; 25(OH)D 10^−9 to 10^−7M, 18 hours (FIG. 6)): more marked decrease in proliferative activity
- reduction in the proliferative activity ([3H]thymidine incorporation) ([13]; 25(OH)D at 10^−7 M, 18 hours, cells transfected with 1α-OHase gene compared to untransfected keratinocytes, p<0.01): 53.7%

Reference: patent US20040087559A1, “Methods for prevention and treatment of cancer” (priority 1999, published 2004)
